According to article PMC8123555, “Precision targeting of the plasminogen activator inhibitor‐1 mechanism increases efficacy of fibrinolytic therapy in empyema” (Physiological Reports, 2021):
Read-outs that look alike come from different tables or passages of the source. Where no end group is shown, it is not given here.

What was measured:
[1] = rabbit, in vivo
Experimental: All animal procedures were approved by the Institutional Animal Care and Use Committee at The University of Texas Health Science Center at Tyler (IACUC protocols 499,616,617). Studies used female, pathogen‐free New Zealand white rabbits (3.0–3.6 kg; average age 18 weeks) from Charles River Laboratories (Wilmington, MA). These studies required a total of 107 rabbits, 43 for the model of TCN‐induced pleural injury and 64 for the model of empyema. […] Briefly, a 3 ml mixture of TCN in ascorbic acid (20 mg/ml TCN (T3258, Sigma‐Aldrich), 2.5 mg/ml ascorbic acid (A7506, Sigma‐Aldrich) and lidocaine (1 mg/ml, UTHCT Compounding Pharmacy), was delivered by intrapleural injection. A model of acute empyema in rabbits was induced as described previously (Komissarov et al., 2016). Briefly, 1–5 × 10^8 cfu of S. pneumoniae (D39 strain, National Collection of Type Cultures, Salisbury UK) in 3 ml of 0.5% brain‐heart infusion agar (BD 238400, BD Diagnostic Systems) was delivered by intrapleural injection. Clavomox (10 mg/kg, subcutaneous, daily for 1–3 days as clinically indicated by Attending Veterinarian) (10000485, Zoetis) was started at 28–30 h post‐infection. Accumulation of pleural fluid and fibrin deposition was monitored using ultrasonography; detailed in the ultrasonography subsection. After 48 or 72 h for TCN‐induced pleural injury and empyema, respectively, intrapleural therapeutics were administered depending on treatment group via an 18‐gauge catheter, which was flushed with 0.5 ml PBS. In all experiments, samples of pleural fluids (0.5 ml) from each rabbit were collected prior to and at 10, 20, and 40 min after PAI‐1‐TFT and processed for later analysis (Florova et al., 2015; Karandashova et al., 2013; Komissarov et al., 2013, 2016). […] Animals were monitored carefully for signs of distress, pain, and worsening clinical status. […]
The residual DSP in pleural fluid samples was determined using LC MS/MS. […]

[2] = Intrapleural bleeding, pleural fluid RBC counts, empyema; type: in vivo, rabbit
Experimental: (§1) FIGURE 7 Low dose PAI‐1‐TFT induces no intrapleural bleeding. Pleural fluids from rabbits with TCN‐induced (a) or S. pneumoniae‐induced (b) pleural injury were collected at necropsy and red blood cells (RBC) were counted using a Beckman Coulter. (a) Animals with TCN‐induced pleural injury were treated (from left to right) with vehicle control (n = 6); 62.5 µg/kg of scuPA alone (n = 6); and with 2.0 mg/kg DSP (n = 6); 72.5 µg/kg of sctPA alone (n = 5), and with 2.0 mg/kg DSP (n = 6). (b) Animals with infectious pleural injury were treated (from left to right) with vehicle control (n = 6); 0.25 mg/kg of sctPA alone (n = 5), and with 8.0 mg/kg DSP (n = 6), 0.5 mg/kg of sctPA alone (n = 6), and with 8.0 mg/kg DSP (n = 6), 0.5 mg/kg of scuPA alone (n = 9), and with 8.0 mg/kg DSP (n = 3). […] Data are presented as box and whisker plots (all points shown)

[3] = in vivo; details: rabbit
Experimental: All animal procedures were approved by the Institutional Animal Care and Use Committee at The University of Texas Health Science Center at Tyler (IACUC protocols 499,616,617). Studies used female, pathogen‐free New Zealand white rabbits (3.0–3.6 kg; average age 18 weeks) from Charles River Laboratories (Wilmington, MA). These studies required a total of 107 rabbits, 43 for the model of TCN‐induced pleural injury and 64 for the model of empyema. […] Briefly, a 3 ml mixture of TCN in ascorbic acid (20 mg/ml TCN (T3258, Sigma‐Aldrich), 2.5 mg/ml ascorbic acid (A7506, Sigma‐Aldrich) and lidocaine (1 mg/ml, UTHCT Compounding Pharmacy), was delivered by intrapleural injection. A model of acute empyema in rabbits was induced as described previously (Komissarov et al., 2016). Briefly, 1–5 × 10^8 cfu of S. pneumoniae (D39 strain, National Collection of Type Cultures, Salisbury UK) in 3 ml of 0.5% brain‐heart infusion agar (BD 238400, BD Diagnostic Systems) was delivered by intrapleural injection. Clavomox (10 mg/kg, subcutaneous, daily for 1–3 days as clinically indicated by Attending Veterinarian) (10000485, Zoetis) was started at 28–30 h post‐infection. Accumulation of pleural fluid and fibrin deposition was monitored using ultrasonography; detailed in the ultrasonography subsection. After 48 or 72 h for TCN‐induced pleural injury and empyema, respectively, intrapleural therapeutics were administered depending on treatment group via an 18‐gauge catheter, which was flushed with 0.5 ml PBS. In all experiments, samples of pleural fluids (0.5 ml) from each rabbit were collected prior to and at 10, 20, and 40 min after PAI‐1‐TFT and processed for later analysis (Florova et al., 2015; Karandashova et al., 2013; Komissarov et al., 2013, 2016). Anesthesia, postoperative pain medication, and animal care were provided as reported previously (Florova et al., 2015; Karandashova et al., 2013; Komissarov et al., 2013, 2016). with details provided in the supplement. Animals were monitored carefully for signs of distress, pain, and worsening clinical status. Euthanasia was accomplished using intravenous injection of 1 ml of commercial euthanasia solution (sodium pentobarbital 390 mg/ml and phenytoin 50 mg/ml) followed by exsanguination.
The residual DSP in pleural fluid samples was determined using LC MS/MS. Briefly, collected samples were extracted using acetonitrile, cleaned with Microcon centrifugal filters (MRCPRT010, MilliporeSigma) and injected via autosampler onto a Pinnacle DB C8 Column (9413332, Restek) reverse‐phase column operated at a flow rate of 200 μl/min. A gradient elution method using solvent A (99% H2O, 1% acetonitrile, 0.05% TFA) for 5 min, a gradient to 100% solvent B (1% H2O, 99% acetonitrile, 0.05% TFA) over 25 min, and 100% solvent B for 2 min was employed. […]

[4] = rabbit, in vivo; remark: listed apart in the source
Experimental: as §1

[5] = test system: PAI‐1; details: alanine mutations of positively charged residues in the 37-loop; ref Benedict et al., 1995; Florova et al., 2018; Keyt et al., 1994; cited from earlier work
From the text: Plasminogen Activator Inhibitor‐1 (PAI‐1) is a mechanism‐based inhibitor of tissue type (tPA) and urokinase (uPA) plasminogen activators (PAs) (Carrell et al., 1991; Chaillan‐Huntington et al., 1997; Mourik et al., 1984) used for fibrinolytic therapy. Levels of PAI‐1 increase by up to three orders of magnitude in empyema (pleural sepsis), and organizing pleural injury (Aleman et al., 2003; Chung et al., 2005; Philip‐Joet et al., 1995), limiting endogenous and exogenous plasminogen activating activity that could help prevent or treat uncontrolled fibrin deposition induced by inflammation. Previ ...

| Substance | Apparent first order rate constant of DSP clearance (kclr), slower phase [1] | DSP in pleural fluid at 24 h [1] | Presence of DSP in pleural fluid after treatment [1] | Bleeding accompanying PAI-1-TFT ([2]; DSP with plasminogen activator, empyema) | Pleural fluid RBC counts ([2]; any dose of DSP alone or in combination with plasminogen activator, pleural fluid at necropsy, Beckman Coulter) | level at 40 min ([3]; female, New Zealand white, 8 mg/kg) | Apparent first order rate constant of DSP clearance (kclr), slower phase [3] | DSP in pleural fluid at 24 h [3] | Presence of DSP in pleural fluid after treatment [3] | Bleeding accompanying PAI-1-TFT [4] | Rate of reaction with PAI-1 relative to the WT enzymes [5] |
| --- | --- | --- | --- | --- | --- | --- | --- | --- | --- | --- | --- |
| EEIIMD [DSP, EEIIMD] | 0.03 to 0.07 min⁻¹ | No DSP was detected | over 40 min | no apparent local or systemic bleeding | no statistical difference | > 300 µg/mL | 0.03 to 0.07 min⁻¹ | No DSP was detected | over 40 min | no apparent local or systemic bleeding |  |
| tenecteplase |  |  |  |  |  |  |  |  |  |  | almost two orders of magnitude slower |
